A short description of assay [1]: THP-1 cell cytotoxicity, dose response, cytotoxicity control for non-replicating M. tuberculosis project (AID 489025). The class given is functional.
For assay [2], the target named is ATP-dependent molecular chaperone HSP82 (Candida albicans (strain WO-1) (Yeast), UniProt C4YTQ8). The experiment in a line: loss of DOC-induced GRE-beta-galactosidase reporter signal, dose response, Hsp90 inhibitor project, S. cerevisiae, luminescence (AID 2400).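 Further: beta-galactosidase luminescence from glucocorticoid response element reporter as proxy for Hsp90 function; inhibitor potency where signal loss means Hsp90 inhibition.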 The class given is functional, cell-based.
Sequence of ATP-dependent molecular chaperone HSP82 (C4YTQ8 whole entry): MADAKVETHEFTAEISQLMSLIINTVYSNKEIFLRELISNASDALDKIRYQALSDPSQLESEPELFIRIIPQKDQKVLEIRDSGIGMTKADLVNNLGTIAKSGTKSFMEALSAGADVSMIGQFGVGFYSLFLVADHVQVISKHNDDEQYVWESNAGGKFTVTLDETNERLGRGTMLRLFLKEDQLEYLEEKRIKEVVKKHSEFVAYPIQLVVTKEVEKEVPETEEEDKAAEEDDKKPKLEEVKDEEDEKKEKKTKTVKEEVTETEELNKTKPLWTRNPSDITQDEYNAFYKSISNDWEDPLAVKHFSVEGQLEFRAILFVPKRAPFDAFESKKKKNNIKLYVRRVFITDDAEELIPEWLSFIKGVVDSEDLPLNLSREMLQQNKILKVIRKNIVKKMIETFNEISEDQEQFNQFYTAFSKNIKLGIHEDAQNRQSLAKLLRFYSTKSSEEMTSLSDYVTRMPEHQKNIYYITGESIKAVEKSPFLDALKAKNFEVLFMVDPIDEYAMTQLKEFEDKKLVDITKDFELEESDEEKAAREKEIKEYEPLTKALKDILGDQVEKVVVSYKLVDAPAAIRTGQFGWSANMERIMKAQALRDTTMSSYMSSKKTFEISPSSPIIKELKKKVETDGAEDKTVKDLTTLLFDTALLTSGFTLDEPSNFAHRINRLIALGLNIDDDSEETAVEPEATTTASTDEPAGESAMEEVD
A short description of assay [3]: C. albicans growth with fluconazole, confirmation, fluorescence, retest (AID 2467). The class given is functional, cell-based.
A short description of assay [4]: HepG2 cell cytotoxicity, dose response, cytotoxicity control for non-replicating M. tuberculosis project (AID 489018). The class given is functional. The following applies: Mycobacterium tuberculosis.
Assay [5] is described as follows: Vero E6 cell cytotoxicity, dose response, cytotoxicity control for non-replicating M. tuberculosis project, secondary assay (AID 492998). The class given is functional, VeroE6. The following applies: Vero C1008.
A short description of another assay: cells. The class given is functional.
Assay [6] in a line: NIH-3T3 fibroblast cytotoxicity, dose response, cytotoxicity control, cell-based, fluorescence, Alamar Blue, secondary assay (AID 2327).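 Further: NIH-3T3 mouse fibroblasts cultured with fluconazole at 8 µg/mL.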 The class given is functional. (In general: Alamar Blue is a resazurin reagent that responds to reducing activity.)
The target in assay [7] is Serine/threonine-protein phosphatase (Candida dubliniensis (strain CD36 / CBS 7987 / NCPF 3949 / NRRLY-17841) (Yeast), UniProt B9W6M3). The experiment in a line: calcineurin pathway inhibitors in yeast reporter, dose response, S. cerevisiae, CDRE-lacZ, luminescence, secondary (AID 2388).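 Further: yeast reporter cells carrying a calcineurin-responsive lacZ construct stimulated with calcium chloride; luminescent beta-galactosidase reporter signal in whole cells rather than isolated phosphatase activity; potency for inhibition where a drop in reporter signal means calcineurin blockade.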 The class given is functional, cell-based.
Sequence of Serine/threonine-protein phosphatase (B9W6M3 whole entry): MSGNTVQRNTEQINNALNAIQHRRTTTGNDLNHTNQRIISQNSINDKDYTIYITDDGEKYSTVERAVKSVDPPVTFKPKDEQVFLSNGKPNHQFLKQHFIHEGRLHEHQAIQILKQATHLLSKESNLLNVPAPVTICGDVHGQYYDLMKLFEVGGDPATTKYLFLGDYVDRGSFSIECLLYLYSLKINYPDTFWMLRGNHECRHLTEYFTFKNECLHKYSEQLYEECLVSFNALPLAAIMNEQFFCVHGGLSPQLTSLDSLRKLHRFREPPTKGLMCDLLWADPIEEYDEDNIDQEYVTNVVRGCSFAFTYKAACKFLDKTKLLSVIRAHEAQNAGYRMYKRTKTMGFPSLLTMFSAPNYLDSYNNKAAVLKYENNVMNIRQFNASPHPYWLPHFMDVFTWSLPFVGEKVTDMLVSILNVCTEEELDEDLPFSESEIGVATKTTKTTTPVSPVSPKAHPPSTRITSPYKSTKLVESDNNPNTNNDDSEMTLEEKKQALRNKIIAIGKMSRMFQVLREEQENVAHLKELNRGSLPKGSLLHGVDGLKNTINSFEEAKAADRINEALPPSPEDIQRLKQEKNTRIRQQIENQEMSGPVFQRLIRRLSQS
In assay [8] the target is T1, Heat shock factor protein 1 (Mus musculus, UniProt P38532).
T1 sequence (P38532 whole entry): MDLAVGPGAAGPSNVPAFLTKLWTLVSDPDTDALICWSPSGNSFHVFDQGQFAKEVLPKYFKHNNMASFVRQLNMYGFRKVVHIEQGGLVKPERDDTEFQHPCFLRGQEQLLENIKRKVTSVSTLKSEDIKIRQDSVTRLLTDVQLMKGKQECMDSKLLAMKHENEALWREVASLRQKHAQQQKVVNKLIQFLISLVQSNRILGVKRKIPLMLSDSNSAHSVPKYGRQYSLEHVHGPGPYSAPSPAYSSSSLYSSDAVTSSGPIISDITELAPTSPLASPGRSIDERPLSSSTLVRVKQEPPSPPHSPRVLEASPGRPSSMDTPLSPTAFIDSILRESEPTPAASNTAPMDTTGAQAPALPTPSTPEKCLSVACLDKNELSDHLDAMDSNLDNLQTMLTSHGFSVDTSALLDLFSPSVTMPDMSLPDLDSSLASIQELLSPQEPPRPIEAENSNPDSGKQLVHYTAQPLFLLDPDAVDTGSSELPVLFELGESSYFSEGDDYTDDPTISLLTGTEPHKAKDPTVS
The experiment in a line: inhibition of MG132-induced HSE-luciferase signal, confirmation, cell-based, NIH3T3, luminescence, dose retest (AID 2382).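 Further: NIH3T3 fibroblasts with HSF1-driven luciferase reporter stressed by proteasome inhibitor MG132; luminescence from HSF1-driven luciferase expression after 8 hours of MG132 stress.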 The class given is functional.

The target of the next assay is Prothrombin (Homo sapiens, UniProt P00734). The assay is described as follows: Thrombin 1536 HTS Dose Response Confirmation. [Related pubchem assays: 1046 (Thrombin 1536 HTS; hits were confirmed in this assay)]. The class given is functional.
Assay [9] deals with Dual specificity protein kinase CLK1 (Homo sapiens, UniProt P49759). The assay is described as follows: CLK1 kinase inhibitors, off-target check, dose response, selectivity assay for Dyrk1A inhibitor project, biochemical, cherry-picked samples (AID 588811).
Sequence of Dual specificity protein kinase CLK1 (P49759 whole entry): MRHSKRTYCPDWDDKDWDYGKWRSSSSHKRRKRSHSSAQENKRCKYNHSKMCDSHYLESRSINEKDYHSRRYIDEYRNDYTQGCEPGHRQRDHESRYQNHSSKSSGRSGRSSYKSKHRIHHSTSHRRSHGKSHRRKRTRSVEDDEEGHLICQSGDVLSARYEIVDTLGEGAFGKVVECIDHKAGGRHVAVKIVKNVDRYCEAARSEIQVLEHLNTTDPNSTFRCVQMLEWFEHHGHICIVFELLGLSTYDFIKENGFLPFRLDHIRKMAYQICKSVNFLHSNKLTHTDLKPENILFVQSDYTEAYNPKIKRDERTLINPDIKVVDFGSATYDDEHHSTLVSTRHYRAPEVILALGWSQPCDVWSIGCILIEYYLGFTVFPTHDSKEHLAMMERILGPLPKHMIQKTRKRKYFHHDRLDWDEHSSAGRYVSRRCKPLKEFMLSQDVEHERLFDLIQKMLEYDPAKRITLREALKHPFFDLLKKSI
In assay [10] the target is Dual specificity tyrosine-phosphorylation-regulated kinase 1A (Rattus norvegicus, UniProt Q63470). The class given is biochemical, Homo sapiens.
Assay [11] deals with INS1. The experiment in a line: protection from cytokine-driven beta-cell apoptosis, dose response, JC-1 fluorescence, INS-1E, dry powder, set 2 (AID 488867). The class given is functional, cell-based. The following applies: Rattus norvegicus.
A short description of assay [12]: inhibitors of cytokine-induced nitrite release, dose response, cell-based, Griess absorbance, INS-1E, dry powder, set 3 (AID 488870). The class given is functional. The following applies: Rattus norvegicus. For orientation: The Griess reaction detects nitrite, a stable product of nitric oxide.
The test system of assay [13] is INS1. The assay is described as follows: protection of INS-1E cells from cytokine death, dose response, ATP luminescence, dry powder (AID 488844). The class given is functional, cell-based. The following applies: Rattus norvegicus.
Assay [14] deals with Latent membrane protein 1 (Human herpesvirus 4 (strain B95-8), UniProt P03230). The assay is described as follows: TES1-eGFP NF-kB reporter inhibition versus Tet-On dsRED, dose response, selectivity assay for LMP1 NF-kB inhibitor project, imaging, HEK293T, dual-color eGFP/dsRED, cherry-picks (AID 588398). The class given is functional, cell-based.
Sequence of Latent membrane protein 1 (P03230 whole entry): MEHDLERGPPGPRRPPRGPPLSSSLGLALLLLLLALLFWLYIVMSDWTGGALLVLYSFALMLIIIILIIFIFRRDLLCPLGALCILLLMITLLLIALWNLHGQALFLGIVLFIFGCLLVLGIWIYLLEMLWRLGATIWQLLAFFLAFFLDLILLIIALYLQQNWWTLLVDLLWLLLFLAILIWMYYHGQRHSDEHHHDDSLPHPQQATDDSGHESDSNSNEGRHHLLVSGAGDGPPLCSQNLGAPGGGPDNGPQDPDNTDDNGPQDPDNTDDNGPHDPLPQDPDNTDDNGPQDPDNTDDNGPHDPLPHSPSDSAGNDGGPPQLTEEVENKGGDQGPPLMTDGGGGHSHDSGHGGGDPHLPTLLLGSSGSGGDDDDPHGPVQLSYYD
Assay [15] in a line: Shn3 3'UTR reporter inhibitors, dose response, cell-based, Clone20 osteoblasts, firefly luciferase, cherry-picked (AID 624132).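 Further: firefly luciferase luminescence from reporter carrying the Shn3 3'UTR in osteoblasts.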 The class given is functional.
Assay [16] concerns HEK293. The assay is described as follows: inhibitors of LMP1-driven NF-kB reporter, dose response, cell-based, HEK293, luciferase, cherry-pick (AID 588343). The class given is functional. The following applies: Homo sapiens.
Assay [17] in a line: control 3'UTR Renilla luciferase suppression, dose response, counter-screen for Shn3 inhibitor project, cell-based, Clone20-Shn3RL, cherry-picked (AID 624133). The class given is functional. Background: A counterscreen serves to expose hits that act by an unwanted route or on another target.
Assay [18] addresses COUP transcription factor 2 (Homo sapiens, UniProt P24468). The assay is described as follows: Luminescence-based cell-based high throughput dose response assay to identify inhibitors of COUP-TFII (NR2F2). The class given is functional.
A short description of assay [19]: HepG2 cell cytotoxicity, dose response, cytotoxicity control for Shn3 inhibitor project, CellTiter-Glo, cherry-picked (AID 624134). The class given is functional, cell-based.
Assay [20] concerns the target T2, Endoribonuclease toxin MazF (Escherichia coli K-12, UniProt P0AE70).
T2 sequence (P0AE70 whole entry): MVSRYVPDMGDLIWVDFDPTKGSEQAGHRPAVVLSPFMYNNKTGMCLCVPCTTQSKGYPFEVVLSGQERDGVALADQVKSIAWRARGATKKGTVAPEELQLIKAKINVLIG
The assay is described as follows: MazF toxin RNase activators, dose response, biochemical, fluorescence, single-stranded RNA substrate, uHTS hits (AID 588481). The class given is functional.

In assay [21] the target is T3, RNA-binding protein pos-1 (Caenorhabditis elegans, UniProt G5EF15).
T3 sequence (G5EF15 whole entry): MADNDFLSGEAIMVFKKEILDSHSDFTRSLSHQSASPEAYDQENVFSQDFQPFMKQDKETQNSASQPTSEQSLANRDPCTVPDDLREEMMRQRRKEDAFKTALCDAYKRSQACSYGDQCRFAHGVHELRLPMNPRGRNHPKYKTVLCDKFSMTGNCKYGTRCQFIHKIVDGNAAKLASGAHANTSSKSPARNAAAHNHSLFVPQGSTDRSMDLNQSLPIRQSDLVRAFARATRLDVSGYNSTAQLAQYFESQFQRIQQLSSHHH
The assay is described as follows: inhibitors of POS-1/mex-3 RNA binding, dose response, biochemical, fluorescence polarization (AID 1964).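 Further: purified POS-1 fused to maltose binding protein made in E. coli; potency of compounds blocking POS-1 binding to fluorescent RNA.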

The target in assay [22] is T4, Zinc finger protein mex-5 (Caenorhabditis elegans, UniProt Q9XUB2).
T4 sequence (Q9XUB2 whole entry): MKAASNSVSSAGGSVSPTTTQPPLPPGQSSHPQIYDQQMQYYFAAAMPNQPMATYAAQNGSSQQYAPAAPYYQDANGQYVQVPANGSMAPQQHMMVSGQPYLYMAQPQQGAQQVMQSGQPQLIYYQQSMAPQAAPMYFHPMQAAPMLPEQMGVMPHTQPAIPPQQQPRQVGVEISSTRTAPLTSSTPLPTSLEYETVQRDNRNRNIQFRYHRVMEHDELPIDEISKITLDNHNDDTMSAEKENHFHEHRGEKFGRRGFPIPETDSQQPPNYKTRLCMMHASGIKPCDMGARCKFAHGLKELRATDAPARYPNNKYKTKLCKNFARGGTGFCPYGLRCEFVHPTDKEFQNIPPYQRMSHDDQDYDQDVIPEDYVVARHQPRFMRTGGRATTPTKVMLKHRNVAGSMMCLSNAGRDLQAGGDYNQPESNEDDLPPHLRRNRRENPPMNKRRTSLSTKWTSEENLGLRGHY
The experiment in a line: MEX-5/TCR-2 RNA interaction inhibitors, dose response, biochemical, C. elegans, fluorescence polarization (AID 1960).

For another assay, the target named is Genome polyprotein (dengue virus type 2, UniProt P29990). The experiment in a line: Dengue-2 NS5 methyltransferase inhibitors, primary screen, biochemical, confirmation dose response (AID 588689). The class given is functional.
Sequence of Genome polyprotein (P29990 2492-3391 limits assumed): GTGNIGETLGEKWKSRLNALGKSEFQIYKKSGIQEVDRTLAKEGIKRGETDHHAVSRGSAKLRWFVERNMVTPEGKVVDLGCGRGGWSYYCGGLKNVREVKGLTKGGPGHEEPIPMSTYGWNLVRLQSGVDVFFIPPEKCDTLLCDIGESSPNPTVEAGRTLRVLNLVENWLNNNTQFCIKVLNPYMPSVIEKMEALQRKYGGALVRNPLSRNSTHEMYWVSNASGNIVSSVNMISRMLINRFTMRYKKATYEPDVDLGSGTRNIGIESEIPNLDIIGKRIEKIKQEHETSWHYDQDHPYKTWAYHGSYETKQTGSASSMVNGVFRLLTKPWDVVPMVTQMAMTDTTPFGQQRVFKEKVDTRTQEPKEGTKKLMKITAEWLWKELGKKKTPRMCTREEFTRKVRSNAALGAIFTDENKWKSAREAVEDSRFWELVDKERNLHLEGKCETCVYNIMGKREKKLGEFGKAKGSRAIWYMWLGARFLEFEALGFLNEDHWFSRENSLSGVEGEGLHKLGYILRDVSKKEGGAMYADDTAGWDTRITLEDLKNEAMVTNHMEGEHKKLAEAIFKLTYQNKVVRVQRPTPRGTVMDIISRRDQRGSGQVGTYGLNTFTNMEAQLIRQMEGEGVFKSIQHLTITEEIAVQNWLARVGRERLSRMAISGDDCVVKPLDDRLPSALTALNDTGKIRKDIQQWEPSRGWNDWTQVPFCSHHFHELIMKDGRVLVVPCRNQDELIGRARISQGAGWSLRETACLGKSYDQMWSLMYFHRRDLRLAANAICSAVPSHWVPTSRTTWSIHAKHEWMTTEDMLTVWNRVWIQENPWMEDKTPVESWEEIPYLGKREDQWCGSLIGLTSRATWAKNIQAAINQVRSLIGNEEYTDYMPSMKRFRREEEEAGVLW
In assay [23] the target is T2, Endoribonuclease toxin MazF. The experiment in a line: SAR analysis of small molecule activators of the MazEF TA System via a fluorescence-based single-stranded RNase assay counterscreen. [Related pubchem assays (depositor defined):AID504720, AID504743]. The class given is functional.
The target is the same in assay [24]. The assay is described as follows: fluorescent RNA oligo signal without MazF, dose response, counter-screen for MazEF activator project, biochemical, fluorescence, single-stranded RNase substrate (AID 588502). The class given is functional.
The next assay deals with MEF. The experiment in a line: SAR analysis of small molecule cytotoxicity of MazEF TA System activators in embryonic fibroblast (MEF) cells. [Related pubchem assays (depositor defined):AID504720, AID504743]. The class given is functional. The following applies: Mus musculus.
For assay [25], the target named is T2, Endoribonuclease toxin MazF. The assay is described as follows: MazF endoribonuclease activators, SAR follow-up, biochemical, fluorescence, single-stranded RNA substrate (AID 588603). The class given is functional.
Another assay deals with Cysteine protease ATG4B (Homo sapiens, UniProt Q9Y4P1). The class given is functional.
Sequence of Cysteine protease ATG4B (Q9Y4P1 whole entry): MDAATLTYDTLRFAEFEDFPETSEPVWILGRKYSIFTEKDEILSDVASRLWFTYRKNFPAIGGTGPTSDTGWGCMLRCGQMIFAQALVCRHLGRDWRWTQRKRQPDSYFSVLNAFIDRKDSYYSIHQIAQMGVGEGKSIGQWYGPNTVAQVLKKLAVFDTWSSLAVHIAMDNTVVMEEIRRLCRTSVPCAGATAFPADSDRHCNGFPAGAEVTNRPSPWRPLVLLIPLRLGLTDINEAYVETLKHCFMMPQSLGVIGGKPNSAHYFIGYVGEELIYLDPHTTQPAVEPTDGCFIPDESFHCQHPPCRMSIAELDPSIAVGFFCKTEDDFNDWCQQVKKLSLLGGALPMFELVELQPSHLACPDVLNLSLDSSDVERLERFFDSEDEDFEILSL
For the next assay, the target named is Phospholipase A2 (Homo sapiens, UniProt P04054). The class given is functional.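 Further: confirmatory dose-response counterscreen on phospholipase A2, testing hits that came from an ultra-high-throughput screen for ATG4B inhibitors.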
Sequence of Phospholipase A2 (P04054 whole entry): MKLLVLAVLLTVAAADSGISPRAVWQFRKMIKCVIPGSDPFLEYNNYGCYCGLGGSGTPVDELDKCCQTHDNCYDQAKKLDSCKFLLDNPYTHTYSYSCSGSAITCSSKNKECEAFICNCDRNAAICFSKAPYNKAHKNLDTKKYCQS
Assay [26] concerns HEK293. The assay is described as follows: cells. The class given is functional, cell-based. The following applies: Homo sapiens.
For assay [27], the target named is Nuclear receptor subfamily 0 group B member 1 (Homo sapiens, UniProt P51843). The experiment in a line: Luminescence-based cell-based high throughput dose response assay for inhibitors of the orphan nuclear receptor subfamily 0, group B, member 1 (DAX1; NR0B1). [Related pubchem assays (depositor defined):AID504766, AID504790]. The class given is functional.
Sequence of Nuclear receptor subfamily 0 group B member 1 (P51843 whole entry): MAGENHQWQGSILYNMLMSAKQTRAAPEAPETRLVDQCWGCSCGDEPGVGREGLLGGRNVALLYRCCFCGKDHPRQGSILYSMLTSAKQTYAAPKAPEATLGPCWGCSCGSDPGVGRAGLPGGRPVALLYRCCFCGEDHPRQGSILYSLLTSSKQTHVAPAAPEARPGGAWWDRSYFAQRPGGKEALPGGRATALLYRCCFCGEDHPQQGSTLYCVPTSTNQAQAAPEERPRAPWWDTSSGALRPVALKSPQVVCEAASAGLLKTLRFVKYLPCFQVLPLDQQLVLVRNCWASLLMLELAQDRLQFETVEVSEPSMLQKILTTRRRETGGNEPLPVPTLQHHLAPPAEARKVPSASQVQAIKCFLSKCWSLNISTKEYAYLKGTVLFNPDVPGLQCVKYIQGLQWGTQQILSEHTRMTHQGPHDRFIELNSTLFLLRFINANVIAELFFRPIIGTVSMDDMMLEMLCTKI

Molecules are shown by their SMILES. Calls of active or inactive are those of the source.

7 compounds from ChEMBL document CHEMBL1201862, “PubChem BioAssay data set” (2004) can be followed below.

The CC50 is the concentration that lowers cell viability or growth by half. The term EC50 denotes the concentration needed to bring the measured effect to its halfway point. Broadly, the IC50 is the concentration at which inhibition is half-maximal. As usually defined, the AC50 is the concentration giving half of the maximal activity seen.

Sequence of COUP transcription factor 2 (P24468 whole entry): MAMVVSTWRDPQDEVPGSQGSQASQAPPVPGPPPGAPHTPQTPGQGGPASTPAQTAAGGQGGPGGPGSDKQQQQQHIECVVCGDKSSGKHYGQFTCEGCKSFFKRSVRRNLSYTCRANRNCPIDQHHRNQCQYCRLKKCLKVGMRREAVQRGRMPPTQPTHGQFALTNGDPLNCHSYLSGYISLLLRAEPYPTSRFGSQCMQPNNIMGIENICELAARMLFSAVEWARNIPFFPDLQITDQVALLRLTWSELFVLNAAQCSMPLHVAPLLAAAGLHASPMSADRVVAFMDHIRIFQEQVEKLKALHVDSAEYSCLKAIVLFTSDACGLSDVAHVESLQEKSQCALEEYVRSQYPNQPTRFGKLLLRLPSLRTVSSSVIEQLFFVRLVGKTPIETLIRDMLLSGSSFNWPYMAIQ

Take `Cc1ccc(C)c(-c2nnc(NC(=O)c3ccco3)o2)c1`: the CC50 is > 40 µM (active) in assay [1], > 20 µM (active) in assay [4] and 15.8 µM (active) in assay [5]. The EC50 is > 160 µM (inactive) in assay [2], 0.695 µM (active) in assay [3], > 160 µM (inactive) in assay [6] and > 180 µM (inactive) in assay [7]. In addition, in “cells”, the IC50 was 2.58 µM (active).
Turning to `COc1ccc(-c2n[nH]cc2-c2ccc3c(c2)OCCO3)c(O)c1`, in assay [8], the EC50 was 2.8 µM (active). On Prothrombin, the IC50 is on record as > 50 µM (not active). In addition, the half-maximal activity concentration (AC50) is 8.33 µM (active) in assay [9] and 12 µM (active) in [10].
As for `Cc1ccc(S(=O)(=O)N(C)C[C@@H]2Oc3c(NC(=O)Nc4ccc(F)cc4)cccc3C(=O)N([C@H](C)CO)C[C@H]2C)cc1`, the AC50 with INS1 [11] is 106 µM (active); in [12], 63.4 µM (active); in the assay with INS1 [13] it was 73.9 µM (active).
Consider `O=C(NC1CCCCCCC1)c1cc(COc2ccc3ncccc3c2)on1`, for which the AC50 in assay [14] is 60.1 µM (active); in [15], 1.06 µM (active); with HEK293 [16], 39.6 µM (active); in assay [17], 11.8 µM (active); in assay [19], 2.97 µM (active). In [18], the IC50 was 4.41 µM (active).
Take `C=CCOc1cccc(C2C(C(=O)c3ccc(C)o3)=C(O)C(=O)N2c2nccs2)c1` (stereo not drawn): the EC50 in assay [20] is 11.4 µM (active); in assay [21] it was > 300 µM (inconclusive); in assay [22], 0.851 µM (active); in [23], 44.5 µM (inactive); in [24] it was > 99 µM (inactive); in [25], 22.3 µM (inactive). Besides, on Genome polyprotein, the IC50 was 5.64 µM (active). In addition, the CC50 with MEF is > 99 µM (inactive).
`COc1ccc(C(=O)Nc2cc(C(=O)c3ccccc3)c(C)oc2=O)cc1`: the figures for the IC50 at Cysteine protease ATG4B and at Phospholipase A2 were 11.3 µM (active) and 11.7 µM (active), respectively.
Turning to `Nn1c(SCc2c(F)cccc2F)nnc1-c1ccccn1`, the IC50 (in the assay with HEK293 [26]; in [27]) was > 67.6 µM (inactive) throughout.
